Tests used:
ΔCRD-Nluc-FZD6 = target: T1, ΔCRD-Nluc-FZD6 (Homo sapiens, UniProt O60353); assay: BRET-based BODIPY-cyclopamine competition binding at FZD6 lacking the CRD; settings: BODIPY-cyclopamine 200 nM; ΔFZD1-10 HEK293T cells; read-out: pIC50 (11) mean ± SEM, ΔCRD-Nluc-FZD6 (converted)
T1 construct: amplifying ΔCRD-FZD6 (starting from D156) using SNAP-FZD6 as a template; expressed in transfected cells; host or cells: ΔFZD1–10 HEK293T cells
T1 sequence (O60353 156-706): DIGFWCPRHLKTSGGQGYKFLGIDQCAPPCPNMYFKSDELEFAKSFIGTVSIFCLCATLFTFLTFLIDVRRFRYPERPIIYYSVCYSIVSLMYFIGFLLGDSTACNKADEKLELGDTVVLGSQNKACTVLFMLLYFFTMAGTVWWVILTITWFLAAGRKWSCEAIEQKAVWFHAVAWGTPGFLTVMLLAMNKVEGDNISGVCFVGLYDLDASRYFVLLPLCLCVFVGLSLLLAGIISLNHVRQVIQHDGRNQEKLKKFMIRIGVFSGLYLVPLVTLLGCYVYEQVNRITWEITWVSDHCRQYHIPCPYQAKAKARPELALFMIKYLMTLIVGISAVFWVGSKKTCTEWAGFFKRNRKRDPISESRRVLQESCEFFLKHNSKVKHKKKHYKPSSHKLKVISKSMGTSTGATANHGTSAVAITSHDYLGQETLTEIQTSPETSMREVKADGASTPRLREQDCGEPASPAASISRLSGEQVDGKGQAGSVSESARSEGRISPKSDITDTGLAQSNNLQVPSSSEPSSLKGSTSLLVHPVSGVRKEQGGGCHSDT
Experimental: After 24 h, cells were washed once with Hanks' balanced salt solution (HBSS), followed by the addition of 80 μl of HBSS. Next, 10 μl of the competitive ligand, that is, the tested SAG1.3 derivative (either in different concentrations for the concentration–response curves or at a final concentration of 10 μM for the first screens) and 10 μl of the fluorescent tracer BODIPY–cyclopamine (final concentration: 300 nM for the first screens, 200 nM for the concentration–response experiments) were added. All serial dilutions were prepared in HBSS. The cells were incubated for 90 min at 37 °C without additional CO2, after which 10 μl of luciferase substrate diluted in HBSS (furimazine; Promega, N1572, final dilution: 1:1000 for first screening) and coelenterazine h (Biosynth; final concentration: 5 μM for concentration–response experiments) were added to the cells. Following a 10 min incubation period in the dark, the measurement was started on a BMG Labtech ClarioStar or TECAN Spark multimode microplate reader, prewarmed to 37 °C. Nluc bioluminescence was detected between 460 and 490 nm (ClarioStar) or 460 and 500 nm (TECAN Spark). The emission of the fluorescent tracer was detected between 520 and 550 nm (ClarioStar) or between 520 and 560 nm (TECAN Spark). […]

HiBiT-FZD6 = target: T2, HiBiT-FZD6 (Homo sapiens, UniProt O60353); assay: NanoBiT cell surface expression assay, HiBiT-FZD6; assay type: cell-based; settings: 10 μM, overnight exposure
T2 construct: expressed in transfected cells; host or cells: HEK293A cells
T2 sequence (O60353 19-706): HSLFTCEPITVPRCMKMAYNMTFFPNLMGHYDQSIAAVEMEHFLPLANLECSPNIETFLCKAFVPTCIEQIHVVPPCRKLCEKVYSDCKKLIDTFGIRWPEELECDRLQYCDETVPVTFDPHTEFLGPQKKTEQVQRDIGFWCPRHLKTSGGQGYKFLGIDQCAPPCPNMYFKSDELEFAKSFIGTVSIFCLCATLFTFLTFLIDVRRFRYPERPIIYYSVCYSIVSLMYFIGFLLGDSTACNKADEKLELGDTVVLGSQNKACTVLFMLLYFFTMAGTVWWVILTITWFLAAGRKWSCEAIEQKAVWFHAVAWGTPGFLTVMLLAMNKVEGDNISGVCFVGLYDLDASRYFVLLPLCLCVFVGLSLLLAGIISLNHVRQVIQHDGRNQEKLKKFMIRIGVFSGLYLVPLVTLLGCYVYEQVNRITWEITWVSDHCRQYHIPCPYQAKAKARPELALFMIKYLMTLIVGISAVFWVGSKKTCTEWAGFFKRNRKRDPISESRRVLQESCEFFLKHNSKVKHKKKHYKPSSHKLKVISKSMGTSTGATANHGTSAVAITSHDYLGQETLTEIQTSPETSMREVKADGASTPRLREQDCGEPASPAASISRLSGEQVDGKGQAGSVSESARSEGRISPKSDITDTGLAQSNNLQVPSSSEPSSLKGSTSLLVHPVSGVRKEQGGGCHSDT
Experimental: Subsequently, 10 μl of either compound 11 or 26 (DD436001) was added at a final concentration of 10 μM. DMSO was added separately as a control. One day after compound or DMSO addition, cells were washed once with HBSS, and 90 μl of HBSS was added to the wells. To measure cell surface expression, a 1:20 dilution of furimazine live cell substrate and 1:20 LgBiT mix (final dilution = 1:200) were prepared in HBSS and 10 μl was added. The plate was incubated for 30 min to allow for HiBiT–LgBiT complementation, and then luminescence was measured on a TECAN Spark multimode microplate reader between 460 and 500 nm (integration time: 200 ms).
Figure S4. BRET time-course of compound 11 at the FZD5-DEP-Clamp in agonist mode and HiBiT-FZD5/6 surface expression upon compound exposure. (A) Shown is the BRET time-course recorded upon addition of 30 µM compound 11 or vehicle (DMSO). Experiments were performed in HEK293A cells stably expressing the FZD5-DEP-Clamp sensor. […] The timepoint of ligand addition is indicated by a black arrow. (B, C) Impact of compound 11 on FZD cell surface expression. The cell surface pool of transiently-transfected HiBiT-FZD5 (B) and HiBiT-FZD6 (C) was assessed by addition of recombinant LgBiT in combination with detection of NanoBiT luminescence. […]

SMILES: CC(=O)Nc1cccc(C(=O)NC2CCC(N(Cc3cccc(-c4ccncc4)c3)C(=O)c3sc4ccccc4c3Cl)CC2)c1 (centres unmarked) [compound 11, N-((1r,4r)-4-(3-Acetamidobenzamido)cyclohexyl)-3-chloro-N-(3-(pyridin-4-yl)benzyl)benzo[b]thiophene-2-carboxamide]
- IC50 (ΔCRD-Nluc-FZD6): 851 nM
- Effect on surface levels of HiBiT-FZD6 (HiBiT-FZD6): had no effect

Reference: paper PMC12605013, “SAG1.3-derived Frizzled-targeting small-molecule compounds” (The Journal of Biological Chemistry, 2025)
